Test results as given in patent US9981975B2, “Pyrrolotriazine compounds as tam inhibitors” (Incyte Corporation, priority 2016, dated 2018).

Tests used:
phosphor-Axl = phosphor-Axl (Homo sapiens (Human), UniProt P30530); assay: TAM Enzymatic Assay (HTRF), Axl; assay type: biochemical; conditions: recombinant autophosphorylated Axl, 60 min, room temperature
Procedure: Autophosphorylation of Axl was carried out by incubating the recombinant Axl protein (Life Technologies, PV4275) in buffer containing 50 mM Tris, pH7.5, 0.2 mg/ml Axl, 5 mM ATP, 20 mM MgCl2 and 2 mM DTT at room temperature for 1 hour.
(§1) The kinase assay buffer contained 50 mM HEPES, pH7.5, 10 mM MgCl2, 1 mM EGTA, 0.01% NP-40 and 2 mM DTT. 0.1 ul test compounds dissolved in DMSO were transferred from compound plates to white 384-well assay plates (Greiner […] plates). […] 4 ul enzyme solution (or assay buffer for the enzyme blank) was added to the appropriate wells in each plate, and then 4 ul/well substrate solution was added to initiate the reaction. The plate was protected from light and incubated at room temperature for 60 min. […] The plate was incubated for 1 h at room temperature, and HTRF (homogenous time resolved fluorescence) signal was measured on a PHERAstar FS plate reader (BMG labtech). Percentage of inhibition was calculated for each concentration and IC50 value was generated from curve fitting with GraphPad Prism software.

Tyro3 = Tyro3 (Homo sapiens (Human), UniProt Q06418); assay: TAM Enzymatic Assay (HTRF), Tyro3; assay type: biochemical; conditions: Tyro3, 60 min, room temperature
Sequence of Tyro3 (Q06418 41-890): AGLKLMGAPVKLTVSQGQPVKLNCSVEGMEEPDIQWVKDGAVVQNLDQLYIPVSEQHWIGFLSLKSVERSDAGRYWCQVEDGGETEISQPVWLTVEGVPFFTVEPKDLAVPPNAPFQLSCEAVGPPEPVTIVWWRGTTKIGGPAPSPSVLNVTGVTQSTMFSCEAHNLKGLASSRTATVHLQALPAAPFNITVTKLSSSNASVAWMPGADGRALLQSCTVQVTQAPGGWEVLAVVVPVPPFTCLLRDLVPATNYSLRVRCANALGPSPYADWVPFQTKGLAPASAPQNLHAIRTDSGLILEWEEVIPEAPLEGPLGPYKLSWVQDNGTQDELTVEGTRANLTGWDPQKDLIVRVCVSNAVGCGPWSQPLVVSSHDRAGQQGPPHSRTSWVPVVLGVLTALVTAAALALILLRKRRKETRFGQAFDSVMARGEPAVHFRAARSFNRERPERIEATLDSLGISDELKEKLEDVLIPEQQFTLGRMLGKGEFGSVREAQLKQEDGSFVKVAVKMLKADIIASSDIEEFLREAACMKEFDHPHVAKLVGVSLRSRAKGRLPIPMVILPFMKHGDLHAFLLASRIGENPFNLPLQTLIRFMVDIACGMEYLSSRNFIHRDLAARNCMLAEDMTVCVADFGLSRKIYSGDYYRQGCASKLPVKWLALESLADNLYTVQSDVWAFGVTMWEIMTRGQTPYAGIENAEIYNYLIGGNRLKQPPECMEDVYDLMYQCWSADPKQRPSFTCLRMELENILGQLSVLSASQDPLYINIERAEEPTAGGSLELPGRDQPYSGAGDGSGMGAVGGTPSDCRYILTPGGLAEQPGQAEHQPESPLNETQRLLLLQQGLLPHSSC
Procedure: as §1

Sequence of phosphor-Axl (P30530 26-894): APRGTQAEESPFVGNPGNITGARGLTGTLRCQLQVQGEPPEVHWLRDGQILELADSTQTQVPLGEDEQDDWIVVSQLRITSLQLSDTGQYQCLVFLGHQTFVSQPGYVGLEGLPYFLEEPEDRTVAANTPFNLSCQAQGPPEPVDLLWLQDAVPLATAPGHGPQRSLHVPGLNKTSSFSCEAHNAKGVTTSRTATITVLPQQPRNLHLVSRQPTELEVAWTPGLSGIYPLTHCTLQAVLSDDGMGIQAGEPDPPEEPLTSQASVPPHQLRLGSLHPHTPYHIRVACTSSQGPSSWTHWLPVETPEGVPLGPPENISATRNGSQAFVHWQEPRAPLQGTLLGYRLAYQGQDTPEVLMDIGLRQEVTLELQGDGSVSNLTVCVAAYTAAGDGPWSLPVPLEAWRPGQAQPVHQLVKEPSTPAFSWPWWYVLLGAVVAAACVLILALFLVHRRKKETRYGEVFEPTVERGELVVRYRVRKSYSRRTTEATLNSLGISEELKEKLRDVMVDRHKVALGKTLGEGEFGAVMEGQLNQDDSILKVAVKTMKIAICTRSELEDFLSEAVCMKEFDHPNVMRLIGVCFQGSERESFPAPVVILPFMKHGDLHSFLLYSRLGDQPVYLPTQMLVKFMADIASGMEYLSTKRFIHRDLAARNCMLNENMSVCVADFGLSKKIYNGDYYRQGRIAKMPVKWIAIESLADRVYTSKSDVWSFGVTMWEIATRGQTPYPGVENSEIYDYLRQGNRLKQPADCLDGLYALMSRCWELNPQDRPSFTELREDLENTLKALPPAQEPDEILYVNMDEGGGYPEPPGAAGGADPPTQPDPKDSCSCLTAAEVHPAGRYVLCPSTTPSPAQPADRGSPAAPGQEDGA

Structure (SMILES) | IC50 (phosphor-Axl) | IC50 (Tyro3)
Nc1ncnn2c(C3CCN(CCO)CC3)cc(-c3ccc(NC(=O)c4cc5c(n(-c6ccc(F)cc6)c4=O)CCCC5=O)cc3)c12 [Example 59, N-(4-{4-Amino-7-[1-(2-hydroxyethyl)piperidin-4-yl]pyrrolo[2,1-f][1,2,4]triazin-5-yl}phenyl)-1-(4-fluorophenyl)-2,5-dioxo-1,2,5,6,7,8-hexahydroquinoline-3-carboxamide] | ≤ 5 nM | > 100 nM
Cc1ccc(-c2ccc(C(=O)Nc3ccc(-c4cc(C5CCN(C(=O)C(C)C)CC5)n5ncnc(N)c45)cc3)c(=O)n2-c2ccccc2)cn1 [Example 105, N-(4-(4-Amino-7-(1-isobutyrylpiperidin-4-yl)pyrrolo[2,1-f][1,2,4]triazin-5-yl)phenyl)-6′-methyl-6-oxo-1-phenyl-1,6-dihydro-[2,3′-bipyridine]-5-carboxamide] | ≤ 5 nM | –
Cc1c(-c2cnn(C)c2)cc(C(=O)Nc2ccc(-c3cc(C4CCN(C(=O)C(C)C)CC4)n4ncnc(N)c34)cc2)c(=O)n1-c1cccnc1 [Example 133, N-(4-(4-Amino-7-(1-isobutyrylpiperidin-4-yl)pyrrolo[2,1-f][1,2,4]triazin-5-yl)phenyl)-6-methyl-5-(1-methyl-1H-pyrazol-4-yl)-2-oxo-2H-[1,3′-bipyridine]-3-carboxamide] | ≤ 5 nM | > 100 nM
CC(C)C(=O)N1CCC(c2cc(-c3ccc(NC(=O)c4cc(C5CC5)nn(-c5ccccc5)c4=O)cc3)c3c(N)ncnn23)CC1 [Example 117, N-{4-[4-Amino-7-(1-isobutyrylpiperidin-4-yl)pyrrolo[2,1-f][1,2,4]triazin-5-yl]phenyl}-6-cyclopropyl-3-oxo-2-phenyl-2,3-dihydropyridazine-4-carboxamide] | ≤ 5 nM | > 100 nM
CC(C)C(=O)N1CCC(c2cc(-c3ccc(NC(=O)c4cn(C(C)C)c(=O)n(-c5cc(F)ccc5F)c4=O)cc3)c3c(N)ncnn23)CC1 [Example 76, N-(4-(4-Amino-7-(1-isobutyrylpiperidin-4-yl)pyrrolo[1,2-f][1,2,4]triazin-5-yl)phenyl)-3-(2,5-difluorophenyl)-1-isopropyl-2,4-dioxo-1,2,3,4-tetrahydropyrimidine-5-carboxamide] | ≤ 5 nM | > 100 nM
CN1CCC(c2cc(-c3ccc(NC(=O)c4cccn(-c5ccccc5)c4=O)cc3)c3c(N)ncnn23)CC1 [Example 20, N-{4-[4-Amino-7-(1-methylpiperidin-4-yl)pyrrolo[2,1-f][1,2,4]triazin-5-yl]phenyl}-2-oxo-1-phenyl-1,2-dihydropyridine-3-carboxamide] | – | > 100 nM
Nc1ncnn2c(C3CCOCC3)cc(-c3ccc(NC(=O)c4cccn(-c5ccccc5)c4=O)cc3)c12 [Example 13, N-{4-[4-Amino-7-(tetrahydro-2H-pyran-4-yl)pyrrolo[2,1-f][1,2,4]triazin-5-yl]phenyl}-2-oxo-1-phenyl-1,2-dihydropyridine-3-carboxamide] | – | > 100 nM
CCc1cc(-c2ccc(NC(=O)c3cc4c(n(-c5ccc(F)cc5)c3=O)CCCC4=O)cc2)c2c(N)ncnn12 [Example 1, N-[4-(4-Amino-7-ethylpyrrolo[2,1-f][1,2,4]triazin-5-yl)phenyl]-1-(4-fluorophenyl)-2,5-dioxo-1,2,5,6,7,8-hexahydroquinoline-3-carboxamide] | – | > 100 nM
Cc1c(-c2ccnn2C)c(=O)c(C(=O)Nc2ccc(-c3cc(C4CCN(C(=O)C(C)C)CC4)n4ncnc(N)c34)cc2)cn1C(C)C [Example 97, N-(4-(4-Amino-7-(1-isobutyrylpiperidin-4-yl)pyrrolo[2,1-f][1,2,4]triazin-5-yl)phenyl)-1-isopropyl-6-methyl-5-(1-methyl-1H-pyrazol-5-yl)-4-oxo-1,4-dihydropyridine-3-carboxamide] | ≤ 5 nM | –

Other lines, results leading:

IC50 (phosphor-Axl) | IC50 (Tyro3) | Structure (SMILES)
≤ 5 nM | > 100 nM | CC(C)C(=O)N1CCC(c2cc(-c3ccc(NC(=O)c4cn(C5CC5)c(=O)n(-c5ccccn5)c4=O)cc3)c3c(N)ncnn23)CC1 [Example 144, N-(4-(4-Amino-7-(1-isobutyrylpiperidin-4-yl)pyrrolo[1,2-f][1,2,4]triazin-5-yl)phenyl)-1-cyclopropyl-2,4-dioxo-3-(pyridin-2-yl)-1,2,3,4-tetrahydropyrimidine-5-carboxamide]
≤ 5 nM | > 100 nM | CC(C)n1cc(C(=O)Nc2ccc(-c3cc(C4CN(C(=O)C5CC5)C4)n4ncnc(N)c34)cc2)c(=O)n(-c2ccccc2)c1=O [Example 94, N-(4-(4-amino-7-(1-(cyclopropanecarbonyl)azetidin-3-yl)pyrrolo[2,1-f][1,2,4]triazin-5-yl)phenyl)-1-isopropyl-2,4-dioxo-3-phenyl-1,2,3,4-tetrahydropyrimidine-5-carboxamide]
≤ 5 nM | > 100 nM | CC(C)C(=O)N1CCC(c2cc(-c3ccc(NC(=O)c4cc5c(n(-c6cncc(F)c6)c4=O)CCC(C)(C)C5=O)cc3)c3c(N)ncnn23)CC1 [Example 115, N-(4-(4-Amino-7-(1-isobutyrylpiperidin-4-yl)pyrrolo[1,2-f][1,2,4]triazin-5-yl)phenyl)-1-(5-fluoropyridin-3-yl)-6,6-dimethyl-2,5-dioxo-1,2,5,6,7,8-hexahydroquinoline-3-carboxamide]
≤ 5 nM | > 100 nM | CCn1cc(C(=O)Nc2ccc(-c3cc(C4CCN(C(=O)N(C)C)CC4)n4ncnc(N)c34)cc2)c(=O)n(-c2cccc(F)c2)c1=O [Example 72, N-(4-(4-Amino-7-(1-(dimethylcarbamoyl)piperidin-4-yl)pyrrolo[1,2-f][1,2,4]triazin-5-yl)phenyl)-1-ethyl-3-(3-fluorophenyl)-2,4-dioxo-1,2,3,4-tetrahydropyrimidine-5-carboxamide]
≤ 5 nM | > 100 nM | CC(C)C(=O)N1CCC(c2cc(-c3ccc(NC(=O)c4cn(C(C)C)cc(-c5cccnc5)c4=O)cc3)c3c(N)ncnn23)CC1 [Example 128, N-(4-(4-Amino-7-(1-isobutyrylpiperidin-4-yl)pyrrolo[1,2-f][1,2,4]triazin-5-yl)phenyl)-1-isopropyl-4-oxo-5-(pyridin-3-yl)-1,4-dihydropyridine-3-carboxamide]
≤ 5 nM | > 100 nM | Cc1c(-c2ccnn2C)cc(C(=O)Nc2ccc(-c3cc(C4CCN(C(=O)C(C)C)CC4)n4ncnc(N)c34)cc2)c(=O)n1-c1ccccn1 [Example 123, N-(4-(4-Amino-7-(1-isobutyrylpiperidin-4-yl)pyrrolo[2,1-f][1,2,4]triazin-5-yl)phenyl)-6-methyl-5-(1-methyl-1H-pyrazol-5-yl)-2-oxo-2H-[1,2′-bipyridine]-3-carboxamide]
≤ 5 nM | > 100 nM | CC(C)C(=O)N1CCC(c2cc(-c3ccc(NC(=O)c4cn(C(C)C)cc(-c5cncc(F)c5)c4=O)cc3)c3c(N)ncnn23)CC1 [Example 129, N-(4-(4-amino-7-(1-isobutyrylpiperidin-4-yl)pyrrolo[1,2-f][1,2,4]triazin-5-yl)phenyl)-5-(5-fluoropyridin-3-yl)-1-isopropyl-4-oxo-1,4-dihydropyridine-3-carboxamide]
≤ 5 nM | – | CC(C)C(=O)N1CCC(c2cc(-c3ccc(NC(=O)c4cn(C(C)C)c(=O)n(-c5cccc(F)c5)c4=O)cc3)c3c(N)ncnn23)CC1 [Example 71, N-(4-(4-Amino-7-(1-isobutyrylpiperidin-4-yl)pyrrolo[1,2-f][1,2,4]triazin-5-yl)phenyl)-3-(3-fluorophenyl)-1-isopropyl-2,4-dioxo-1,2,3,4-tetrahydropyrimidine-5-carboxamide]
≤ 5 nM | – | Nc1ncnn2c(C3CCN(CCO)CC3)cc(-c3ccc(NC(=O)c4cc5c(n(-c6ccc(F)cc6)c4=O)CCCC5=O)cc3F)c12 [Example 60, N-(4-{4-Amino-7-[1-(2-hydroxyethyl)piperidin-4-yl]pyrrolo[2,1-f][1,2,4]triazin-5-yl}-3-fluorophenyl)-1-(4-fluorophenyl)-2,5-dioxo-1,2,5,6,7,8-hexahydroquinoline-3-carboxamide]
– | > 100 nM | CCc1cc(-c2ccc(NC(=O)c3cccn([C@@H](CO)c4ccccc4)c3=O)cc2)c2c(N)ncnn12 [Example 2, N-[4-(4-Amino-7-ethylpyrrolo[2,1-f][1,2,4]triazin-5-yl)phenyl]-1-[(1R)-2-hydroxy-1-phenylethyl]-2-oxo-1,2-dihydropyridine-3-carboxamide]
– | > 100 nM | CCN(C)C(=O)N1CCC(c2cc(-c3ccc(NC(=O)c4cccn(-c5ccc(F)cc5)c4=O)cc3)c3c(N)ncnn23)CC1 [Example 56, N-{4-[4-Amino-7-(1-{[ethyl(methyl)amino]carbonyl}piperidin-4-yl)pyrrolo[2,1-f][1,2,4]triazin-5-yl]phenyl}-1-(4-fluorophenyl)-2-oxo-1,2-dihydropyridine-3-carboxamide]
– | > 100 nM | CC(C)n1cc(C(=O)Nc2ccc(-c3cc(C(=O)N(C)C)n4ncnc(N)c34)cc2)c(=O)n(-c2cccc(F)c2)c1=O [Example 86, 4-Amino-5-(4-(3-(3-fluorophenyl)-1-isopropyl-2,4-dioxo-1,2,3,4-tetrahydropyrimidine-5-carboxamido)phenyl)-N,N-dimethylpyrrolo[2,1-f][1,2,4]triazine-7-carboxamide]
≤ 5 nM | – | CCN(C)C(=O)N1CCC(c2cc(-c3ccc(NC(=O)c4cn(C(C)C)c(=O)n(-c5ccc(F)cc5)c4=O)cc3)c3c(N)ncnn23)CC1 [Example 66, N-(4-(4-Amino-7-(1-(ethyl(methyl)carbamoyl)piperidin-4-yl)pyrrolo[1,2-f][1,2,4]triazin-5-yl)phenyl)-3-(4-fluorophenyl)-1-isopropyl-2,4-dioxo-1,2,3,4-tetrahydropyrimidine-5-carboxamide]
